pIC50: −log10 of the molar value. Like-named read-outs stand apart in the source and are kept apart here.
Tests used:
hSERT = target: T1, hSERT (Homo sapiens, UniProt P31645); test: SERT radioligand binding assay
T1 construct: expressed in transfected cells; host or cells: HEK-293 cells (crude membrane preparation)
Experimental: (§1) NK-1 Binding assay. Crude membrane suspensions were prepared for the NK1 and SERT radioligand binding assays from U373 cells or recombinant HEK-293 cells expressing hSERT, respectively. Cells were harvested from T-175 flasks as follows. The medium is removed from the flasks and the cells rinsed with HBSS without Ca and without Mg. The cells are then incubated for 5-10 minutes in 10 mM Tris-Cl, pH 7.5, 5 mM EDTA before the cells are lifted with a combination of pipetting and scraping, as needed. To prepare membranes, the cell suspension is collected into centrifuge bottles and homogenized for 30 seconds with a Polytron homogenizer. The suspension is centrifuged for 30 min @ 32,000×g, 4° C., then the supernatant is decanted and the pellet resuspended and homogenized in 50 mM Tris-Cl, pH 7.5, 1 mM EDTA for 10 seconds. The suspension is then centrifuged again for 30 min @ 32,000×g, 4° C. The supernatant is decanted and the pellet resuspended in 50 mM Tris-Cl, pH 7.5, 1 mM EDTA and briefly homogenized. A Bradford assay (Bio-rad) is performed and the membrane preparation diluted to 2 mg/ml with 50 mM Tris-Cl, pH 7.5, 1 mM EDTA. Aliquots are prepared, and then frozen and stored at −80° C.
SERT radioligand binding assay. Compounds are dissolved in 100% DMSO at a concentration 100× the desired highest assay concentration, serially diluted 1:3 in 100% DMSO, and 0.4 ul/well of each solution is dispensed to a Nunc polypropylene, round bottom, 384 well plate. 100% inhibition is defined with 0.4 ul/well of 1 mM fluoxetine (Sigma F-132) dissolved in DMSO. 20 ul/well of a 2×HEK-hSERT membrane preparation (15 ug/ml in 50 mM Tris-Cl, pH 7.5, 120 mM NaCl, 5 mM KCl) and 20 ul/well of a 2× radioligand solution (520 pM [^125I]RTI-55 (Perkin-Elmer NEX-272) in 50 mM Tris-Cl, pH 7.5, 120 mM NaCl, 5 mM KCl) are added to each well and the reaction incubated for 1 hour at room temperature. The contents of the assay plate are then transferred to a Millipore MultiscreenHTS GF/B filter plate which has been pretreated with 0.5% PEI for at least one hour. The plate is vacuum filtered and washed with 7 washes of 100 ul/well of 50 mM Tris-Cl, pH 7.5, 120 mM NaCl, 5 mM KCl chilled to 4° C. The filtration and washing is completed in less than 90 s. The plates are air-dried overnight, 12 ul/well of MicroScint scintillation fluid added, and the plates counted in a Trilux.
(§2) Data analysis. The raw data are normalized to percent inhibition using control wells defining 0% (DMSO only) and 100% (selective inhibitor) inhibition which are run on each plate. Each plate is run in triplicate, and the concentration response curve thus generated is fit using the four-parameter dose response equation, Y=Bottom+(Top-Bottom)/(1+10̂((LogIC50−X)*HillSlope)) in order to determine the IC50 value for each compound. The radioligand concentration chosen for each assay corresponds to the Kd concentration determined through saturation binding analysis for each assay.

NK-1 = target: T2, NK-1 (Homo sapiens, UniProt P25103); test: NK1 radioligand binding assay; conditions: U373 membrane preparation, [125I]Substance P; Table 1
T2 construct: 30 ul/well of a 2×U373 membrane preparation; endogenous in cells; host or cells: U373 cells (crude membrane preparation)
Experimental: as §1
NK1 radioligand binding assay. Compounds are dissolved in 100% DMSO at a concentration 100× the desired highest assay concentration, serially diluted 1:3 in 100% DMSO, and 0.6 ul/well of each solution is dispensed to a Nunc polypropylene, round bottom, 384 well plate. 100% inhibition is defined with 0.6 ul/well of 1 mM L-733,060 (Sigma L-137) dissolved in DMSO. 30 ul/well of a 2×U373 membrane preparation (267 ug/ml in 100 mM Tris-Cl, pH 7.5, 6 mM MgCl2, 0.2% (v/v) Sigma mammalian protease inhibitor cocktail (Sigma P-8340), and 4 ug/ml chymostatin, Sigma C-7268) and 30 ul/well of a 2× radioligand solution (400 pM [^125I]Substance P (Perkin Elmer NEX-190) in 1% (w/v) BSA (Sigma A-2153), 0.1 mg/ml bacitracin, Sigma B-0125) are added to the well and the reaction incubated for 1 hour at room temperature. The contents of the assay plate are then transferred to a Millipore MultiscreenHTS GF/B filter plate which has been pretreated with 0.5% PEI for at least one hour. The plate is vacuum filtered and washed with 7 washes of 100 ul/well of 20 mM Tris-Cl, pH 7.5, 0.5% (w/v) BSA chilled to 4° C. The filtration and washing is completed in less than 90 s. The plates are air-dried overnight, 12 ul/well of MicroScint scintillation fluid added, and the plates counted in a Trilux.
as §2

[1] = HEK-hSERT membrane preparation, [125I]RTI-55, Table 1, read-out: SERT IC50

T1 sequence (P31645 whole entry): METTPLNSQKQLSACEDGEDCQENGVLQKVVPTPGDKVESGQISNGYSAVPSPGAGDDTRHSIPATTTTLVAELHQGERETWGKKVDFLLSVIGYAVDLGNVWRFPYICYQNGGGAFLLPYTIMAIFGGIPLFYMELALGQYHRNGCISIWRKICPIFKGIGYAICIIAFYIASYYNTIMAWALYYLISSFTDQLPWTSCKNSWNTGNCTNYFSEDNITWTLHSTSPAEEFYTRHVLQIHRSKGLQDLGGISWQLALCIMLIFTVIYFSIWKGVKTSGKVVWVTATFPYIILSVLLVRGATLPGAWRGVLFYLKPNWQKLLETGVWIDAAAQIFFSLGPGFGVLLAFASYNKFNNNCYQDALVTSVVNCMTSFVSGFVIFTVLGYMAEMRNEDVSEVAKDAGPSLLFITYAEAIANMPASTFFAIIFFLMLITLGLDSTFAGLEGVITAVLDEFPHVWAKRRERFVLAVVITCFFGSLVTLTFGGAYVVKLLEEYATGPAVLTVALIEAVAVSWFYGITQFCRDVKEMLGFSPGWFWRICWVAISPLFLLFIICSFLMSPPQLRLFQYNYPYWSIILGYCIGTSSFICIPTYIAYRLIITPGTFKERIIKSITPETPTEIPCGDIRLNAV
T2 sequence (P25103 whole entry): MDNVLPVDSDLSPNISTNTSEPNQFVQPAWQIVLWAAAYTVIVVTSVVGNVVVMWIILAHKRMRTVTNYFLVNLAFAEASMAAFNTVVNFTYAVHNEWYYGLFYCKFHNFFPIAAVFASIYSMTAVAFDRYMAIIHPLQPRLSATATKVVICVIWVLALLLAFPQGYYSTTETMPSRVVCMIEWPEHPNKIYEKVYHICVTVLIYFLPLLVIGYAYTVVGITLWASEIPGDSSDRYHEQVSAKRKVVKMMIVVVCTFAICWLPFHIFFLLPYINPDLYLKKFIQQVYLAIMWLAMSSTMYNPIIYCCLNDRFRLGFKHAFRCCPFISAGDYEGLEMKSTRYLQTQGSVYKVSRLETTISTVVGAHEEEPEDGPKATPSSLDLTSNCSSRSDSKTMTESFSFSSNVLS

| Structure (SMILES) | pIC50 (hSERT) | pIC50 (NK-1) | pIC50 (hSERT; [1]) |
| --- | --- | --- | --- |
| CN1CCC(COCc2cc(-c3ccc(C#N)cc3)cc3cccnc23)(c2ccccc2)CC1 [Example 25] | 7.00 to 11.00 | < 6.52 |  |
| Cc1cc(COCC2(c3ccccc3)CCN(C)CC2)c2ncccc2c1 [Example 26] |  | 7.00 to 11.00 | 7.00 to 11.00 |
| Cc1cc(COCC2(c3ccc(F)cc3F)CCNCC2)c2ncccc2c1 [Example 27] |  | 7.00 to 11.00 | 7.00 to 11.00 |
| Cc1cc(COCC2(c3ccc(F)cc3F)CCN(C)CC2)c2ncccc2c1 [Example 28] | 7.00 to 11.00 | 6.52 to 7.00 |  |
| Cc1cc(COCC2(c3ccc(F)cc3)CCNCC2)c2ncccc2c1 [Example 29] |  | 7.00 to 11.00 | 7.00 to 11.00 |
| Cc1cc(COCC2(c3ccc(F)cc3)CCN(C)CC2)c2ncccc2c1 [Example 30] |  | 7.00 to 11.00 | 7.00 to 11.00 |
| c1ccc(C2(COCc3cccc4cccnc34)CCNCC2)cc1 [Example 31, 8-(((4-phenylpiperidin-4-yl)methoxy)methyl)quinoline] |  | < 6.52 | 7.00 to 11.00 |
| CN1CCC(COCc2cc(C(F)(F)F)cc3cccnc23)(c2ccc(F)cc2)CC1 [Example 32, 8-(((4-(4-fluorophenyl)-1-methylpiperidin-4-yl)methoxy)methyl)-6-(trifluoromethyl)quinoline] |  | 7.00 to 11.00 | 7.00 to 11.00 |
| CC(OCC1(c2ccc(F)cc2)CCNCC1)c1cc(C(F)(F)F)cc2cccnc12 (stereo not shown) [Example 33] |  | 7.00 to 11.00 | 7.00 to 11.00 |
| CC(OCC1(c2ccc(F)cc2)CCN(C)CC1)c1cc(C(F)(F)F)cc2cccnc12 (stereo not shown) [Example 34] |  | 7.00 to 11.00 | 7.00 to 11.00 |
| CC(OCC1(c2ccccc2)CCNCC1)c1cc(C(F)(F)F)cc2cccnc12 (stereo not shown) [Example 35] |  | 7.00 to 11.00 | 7.00 to 11.00 |
| CC(OCC1(c2ccccc2)CCN(C)CC1)c1cc(C(F)(F)F)cc2cccnc12 (stereo not shown) [Example 36] |  | 7.00 to 11.00 | 7.00 to 11.00 |
| CC(OCC1(c2ccc(F)cc2F)CCNCC1)c1cc(C(F)(F)F)cc2cccnc12 (stereo not shown) [Example 37] |  | 7.00 to 11.00 | 7.00 to 11.00 |
| CC(OCC1(c2ccc(F)cc2F)CCN(C)CC1)c1cc(C(F)(F)F)cc2cccnc12 (stereo not shown) [Example 38] |  | 7.00 to 11.00 | 7.00 to 11.00 |
| Cc1cc(C(C)OCC2(c3ccc(F)cc3)CCNCC2)c2ncccc2c1 (stereo not shown) [Example 39] |  | 7.00 to 11.00 | 7.00 to 11.00 |
| Cc1cc(C(C)OCC2(c3ccc(F)cc3)CCN(C)CC2)c2ncccc2c1 (stereo not shown) [Example 40] |  | 7.00 to 11.00 | 7.00 to 11.00 |
| Cc1cc(C(C)OCC2(c3ccccc3)CCNCC2)c2ncccc2c1 (stereo not shown) [Example 41] |  | 7.00 to 11.00 | 7.00 to 11.00 |
| Cc1cc(C(C)OCC2(c3ccccc3)CCN(C)CC2)c2ncccc2c1 (stereo not shown) [Example 42] |  | 7.00 to 11.00 | 7.00 to 11.00 |
| Cc1cc(C(C)OCC2(c3ccc(F)cc3F)CCN(C)CC2)c2ncccc2c1 (stereo not shown) [Example 43] |  | 7.00 to 11.00 | 7.00 to 11.00 |
| CN1CCC(COCc2cc(C#N)cc3cccnc23)(c2ccc(F)cc2)CC1 [Example 44, 8-(((4-(4-fluorophenyl)-1-methylpiperidin-4-yl)methoxy)methyl)quinoline-6-carbonitrile] | 7.00 to 11.00 | < 6.52 |  |
| CNc1cc(COCC2(c3ccccc3)CCNCC2)nc2cccc(C(F)(F)F)c12 [Example 45, N-methyl-2-(((4-phenylpiperidin-4-yl)methoxy)methyl)-5-(trifluoromethyl)quinolin-4-amine] |  | < 6.52 | 7.00 to 11.00 |
| FC(F)(F)c1ccc2ccc(COCC3(c4ccccc4)CCNCC3)nc2c1 [Example 46, 2-(((4-phenylpiperidin-4-yl)methoxy)methyl)-7-(trifluoromethyl)quinoline] |  | < 6.52 | 7.00 to 11.00 |
| FC(F)(F)c1ccnc2ccc(COCC3(c4ccccc4)CCNCC3)cc12 [Example 47, 6-(((4-phenylpiperidin-4-yl)methoxy)methyl)-4-(trifluoromethyl)quinoline] |  | < 6.52 | 7.00 to 11.00 |
| FC(F)(F)c1cccc2nc(COCC3(c4ccccc4)CCNCC3)ccc12 [Example 48, 2-(((4-phenylpiperidin-4-yl)methoxy)methyl)-5-(trifluoromethyl)quinoline] |  | < 6.52 | 7.00 to 11.00 |
| Cc1cc(C(C)OCC2(c3ccc(F)cc3)CCN(C)CC2)c2nc(Cl)ccc2c1 (stereo not shown) [Example 49] |  | 7.00 to 11.00 | 7.00 to 11.00 |
| COc1ccc2cc(C)cc(C(C)OCC3(c4ccc(F)cc4)CCN(C)CC3)c2n1 (stereo not shown) [Example 50] |  | 7.00 to 11.00 | 7.00 to 11.00 |
| Cc1cc(C(C)OCC2(c3ccc(F)cc3)CCN(C)CC2)c2nc(N(C)C)ccc2c1 (stereo not shown) [Example 51] |  | 7.00 to 11.00 | 6.52 to 7.00 |
| Cc1cc(C(C)OCC2(c3ccc(F)cc3)CCN(C)CC2)c2nc(F)ccc2c1 (stereo not shown) [Example 52] |  | 7.00 to 11.00 | 7.00 to 11.00 |
| Cc1cc(C(C)OCC2(c3ccc(F)cc3)CCN(C)CC2)c2[nH]c(=O)ccc2c1 (stereo not shown) [Example 53] |  | 7.00 to 11.00 | 7.00 to 11.00 |
